Data from US20230021448A1, “COMPOUNDS AND COMPOSITIONS FOR TREATING CONDITIONS ASSOCIATED WITH STING ACTIVITY” (IFM Due, Inc., priority 2019, published 2023).

Biological target: T1, STING (Homo sapiens, UniProt Q86WV6, G230A/H232R/R293Q/R71H)
T1 construct: host or cells: THP1-Dual KO-IFNAR2 cells
Assay: STING reporter assay: luciferase reporter activity in THP1-Dual KO-IFNAR2 cells stimulated with 2'3'cGAMP
Type: cell-based
Settings: 2′3′cGAMP 15 μM final, 24h, read-out: hSTING: EC50
Outline: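 THP1-Dual KO-IFNAR2 cells (2×10E6 cells/mL) incubated with compounds at 0.0017-100 μM final plus Lipofectamine-transfected 2′3′cGAMP (15 μM final), 24 h at 37 °C, 5% CO2. Luciferase in supernatant read by QUANTI-Luc luminescence; EC50 derived.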

T1 sequence (Q86WV6 whole entry R71H/G230A/H232R/R293Q): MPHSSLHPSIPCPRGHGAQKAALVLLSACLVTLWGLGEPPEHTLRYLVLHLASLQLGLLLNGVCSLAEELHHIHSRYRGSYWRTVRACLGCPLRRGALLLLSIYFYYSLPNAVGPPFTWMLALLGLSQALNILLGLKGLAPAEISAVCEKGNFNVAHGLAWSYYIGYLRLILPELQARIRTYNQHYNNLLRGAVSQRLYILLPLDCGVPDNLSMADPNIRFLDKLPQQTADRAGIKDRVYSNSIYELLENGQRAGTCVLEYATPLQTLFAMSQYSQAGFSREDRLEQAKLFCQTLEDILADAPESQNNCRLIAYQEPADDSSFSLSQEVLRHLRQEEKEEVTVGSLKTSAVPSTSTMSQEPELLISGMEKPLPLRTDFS

EC50 [nM]	Compound
200 to 1000	O=C(NCc1cnc(C2CCC(F)(F)CC2)c(F)c1)C(=O)Nc1c[nH]c2cc(F)c(F)cc12 [Compound 333]
200 to 1000	O=C(NCc1ccc(Cl)c(C(F)(F)F)n1)C(=O)Nc1c[nH]c2cc(F)c(F)cc12 [Compound 334]
40 to 200	O=C(NCc1cc(C(F)(F)F)c(Cl)cn1)C(=O)Nc1c[nH]c2cc(F)c(F)cc12 [Compound 335]
200 to 1000	O=C(Nc1c[nH]c2cc(F)c(F)cc12)C(=O)NC1CCN(Cc2cccc(C(F)(F)F)c2)C1 (stereo not drawn) [Compound 336]
200 to 1000	O=C(Nc1c[nH]c2cc(F)c(F)cc12)C(=O)NC1CCN(c2ccc(C(F)(F)F)cn2)C1 (stereo not drawn) [Compound 337]
200 to 1000	O=C(NCc1cccc(C(F)(F)F)n1)C(=O)Nc1c[nH]c2cc(F)c(F)cc12 [Compound 338]
200 to 1000	O=C(NCc1ccc(C(F)(F)F)c(Cl)c1)C(=O)Nc1c[nH]c2ccc(CCO)cc12 [Compound 339, N-(3-chloro-4-(trifluoromethyl)benzyl)-N′-(5-(2-hydroxyethyl)-1H-indol-3-yl)oxalamide]
1000 to 5000	CC(C)(O)c1cccc(-c2ccc3[nH]cc(NC(=O)C(=O)NCc4ccc(C(F)(F)F)c(Cl)c4)c3c2)c1 [Compound 340]
200 to 1000	CC(C)n1cc(-c2cc3c(NC(=O)C(=O)Nc4ccc(C(F)(F)F)cc4)c[nH]c3cc2F)cn1 [Compound 341, N-(6-fluoro-5-(1-isopropyl-1H-pyrazol-4-yl)-1H-indol-3-yl)-N′-(4-(trifluoromethyl)phenyl)oxalamide]
200 to 1000	O=C(NCc1ccnc(C(F)(F)F)c1)C(=O)Nc1c[nH]c2cc(F)c(F)cc12 [Compound 342]
200 to 1000	O=C(NCc1cncc(C(F)(F)F)c1)C(=O)Nc1c[nH]c2cc(F)c(F)cc12 [Compound 343]
200 to 1000	O=C(NCc1ccc(C(F)(F)F)nc1)C(=O)Nc1c[nH]c2cc(F)c(F)cc12 [Compound 344]
200 to 1000	CC(C)n1cc(-c2ccc3[nH]cc(NC(=O)C(=O)Nc4ccc(C(F)(F)F)cc4)c3c2)cn1 [Compound 346]
200 to 1000	O=C(NC[C@@H](c1ccccc1)C(F)F)C(=O)Nc1c[nH]c2cc(F)c(F)cc12 [Compound 348]
1000 to 5000	O=C(NCc1ccc(C(F)(F)F)c(Cl)c1)C(=O)Nc1c[nH]c2ccc(-c3cccc(CO)c3)cc12 [Compound 349, N-(3-chloro-4-(trifluoromethyl)benzyl)-N′-(5-(3-(hydroxymethyl)phenyl)-1H-indol-3-yl)oxalamide]
200 to 1000	O=C(NCc1ccc(C(F)(F)F)c(Cl)c1)C(=O)Nc1c[nH]c2ccc(-c3cnn(CC(F)(F)F)c3)cc12 [Compound 350]
200 to 1000	O=C(NCCc1cccc(C(F)(F)F)c1)C(=O)Nc1c[nH]c2cc(F)c(F)cc12 [Compound 351]

Further lines, the molecule ahead of its results:

Compound	EC50 [nM]
O=C(Nc1c[nH]c2cc(F)c(F)cc12)C(=O)NC1COc2ccccc2C1 (stereo not drawn) [Compound 301, N-(5,6-difluoro-1H-indol-3-yl)-N′-(3,4-dihydro-2H-1-benzopyran-3-yl)ethanediamide]	200 to 1000
O=C(Nc1ccc(C(F)(F)F)cc1)C(=O)Nc1c[nH]c2ccc(Br)cc12 [Compound 302]	40 to 200
CC(NC(=O)C(=O)Nc1c[nH]c2cc(F)c(F)cc12)c1cc(C(F)(F)F)c(Cl)cn1 (stereo not drawn) [Compound 303]	200 to 1000
O=C(NCc1ccc2ccccc2n1)C(=O)Nc1c[nH]c2cc(F)c(F)cc12 [Compound 304, N-(5,6-difluoro-1H-indol-3-yl)-N′-[(quinolin-2-yl)methyl] ethanediamide]	200 to 1000
O=C(NCCOC1CCCC1)C(=O)Nc1c[nH]c2cc(F)c(F)cc12 [Compound 305, N'-[2-(cyclopentyloxy)ethyl]-N-(5,6-difluoro-1H-indol-3-yl)ethanediamide]	200 to 1000
CN(C(=O)CNC(=O)C(=O)Nc1c[nH]c2cc(F)c(F)cc12)c1ccccc1 [Compound 306, N-(5,6-difluoro-1H-indol-3-yl)-N′-{[methyl(phenyl)carbamoyl]methyl} ethanediamide]	1000 to 5000
CN(CCCNC(=O)C(=O)Nc1c[nH]c2cc(F)c(F)cc12)c1ccccc1 [Compound 307, N-(5,6-difluoro-1H-indol-3-yl)-N′-{3-[methyl(phenyl)amino]propyl}ethanediamide]	200 to 1000
CN(C)CC(NC(=O)C(=O)Nc1c[nH]c2cc(F)c(F)cc12)c1ccccc1 (stereo not drawn) [Compound 308, N-(5,6-difluoro-1H-indol-3-yl)-N′-[2-(dimethylamino)-1-phenylethyl] ethanediamide]	5000 to 100000
O=C(NCC(=O)N1CCc2ccccc21)C(=O)Nc1c[nH]c2cc(F)c(F)cc12 [Compound 309, N-(5,6-difluoro-1H-indol-3-yl)-N′-[2-(2,3-dihydro-1H-indol-1-yl)-2-oxoethyl] ethanediamide]	200 to 1000
COCC(NC(=O)C(=O)Nc1c[nH]c2cc(F)c(F)cc12)c1ccccc1 (stereo not drawn) [Compound 310, N-(5,6-difluoro-1H-indol-3-yl)-N′-(2-methoxy-1-phenylethyl) ethanediamide]	1000 to 5000
CCC(NC(=O)C(=O)Nc1c[nH]c2cc(F)c(F)cc12)c1cccc(C(F)(F)F)c1 (stereo not drawn) [Compound 311, N-(5,6-difluoro-1H-indol-3-yl)-N′-{1-[3-(trifluoromethyl)phenyl]propyl} ethanediamide]	200 to 1000
O=C(Nc1c[nH]c2cc(F)c(F)cc12)C(=O)NC(c1ccccc1)C(F)(F)F (stereo not drawn) [Compound 312, N1-(5,6-difluoro-1H-indol-3-yl)-N2-(2,2,2-trifluoro-1-phenylethyl)oxalamide]	200 to 1000
O=C(Nc1c[nH]c2cc(F)c(F)cc12)C(=O)NC1CCc2ccccc2C1 (stereo not drawn) [Compound 313, N-(5,6-difluoro-1H-indol-3-yl)-N′-(1,2,3,4-tetrahydronaphthalen-2-yl)ethanediamide]	200 to 1000
O=C(Nc1c[nH]c2cc(F)c(F)cc12)C(=O)NC1CCC2(CCCC2)CC1 [Compound 314]	200 to 1000
O=C(Nc1c[nH]c2cc(F)c(F)cc12)C(=O)NC1CCC(Oc2ccc(C(F)(F)F)cc2)CC1 (stereo not drawn) [Compound 315]	40 to 200
O=C(Nc1c[nH]c2cc(F)c(F)cc12)C(=O)NC1CCC(Oc2ccccn2)CC1 (stereo not drawn) [Compound 316]	200 to 1000
O=C(Nc1c[nH]c2cc(F)c(F)cc12)C(=O)N1CCC(Oc2ccc(C(F)(F)F)cc2)CC1 [Compound 317]	200 to 1000
Cc1cnc(CNC(=O)C(=O)Nc2c[nH]c3cc(F)c(F)cc23)cc1C(F)(F)F [Compound 318]	200 to 1000
N#Cc1ccc2[nH]cc(NC(=O)C(=O)NCc3ccc(C(F)(F)F)c(Cl)c3)c2c1 [Compound 321]	200 to 1000
CN(CCNC(=O)C(=O)Nc1c[nH]c2cc(F)c(F)cc12)c1ccccn1 [Compound 322]	200 to 1000
Cc1cc2c(cn1)C(NC(=O)C(=O)Nc1c[nH]c3cc(F)c(F)cc13)CCC2 (stereo not drawn) [Compound 323]	200 to 1000
O=C(NCc1ccnc(N2CCCCC2)c1)C(=O)Nc1c[nH]c2cc(F)c(F)cc12 [Compound 324]	200 to 1000
O=C(NCCOc1cncc(C(F)(F)F)c1)C(=O)Nc1c[nH]c2cc(F)c(F)cc12 [Compound 325]	200 to 1000
O=C(NCc1cccc(N2CCCCC2)n1)C(=O)Nc1c[nH]c2cc(F)c(F)cc12 [Compound 326]	200 to 1000
O=C(NCCOc1ccc(C(F)(F)F)nc1)C(=O)Nc1c[nH]c2cc(F)c(F)cc12 [Compound 327]	200 to 1000
CC(CN(C)c1ccccc1)NC(=O)C(=O)Nc1c[nH]c2cc(F)c(F)cc12 (stereo not drawn) [Compound 328]	200 to 1000
CN(CCNC(=O)C(=O)Nc1c[nH]c2cc(F)c(F)cc12)c1ccccc1 [Compound 331]	200 to 1000
O=C(Nc1c[nH]c2cc(F)c(F)cc12)C(=O)NC1CCN(c2cccnc2)C1 (stereo not drawn) [Compound 332]	1000 to 5000
